Like-named read-outs stand apart in the source and are kept apart here. Marks after values point to notes of the source that are not given here. Bounds are passed on as bounds.

The conditions of data set [1]: cited from earlier work.
The conditions of data set [2]: mouse, in vivo, 10 mg/kg/day.
The subject of data set [3] is Influenza A/NWS/33 (H1N1). Type of data set: in vivo, BALB/c mice. To be noted: for Survivors/Total: twice a day for 5 days, observed 21 days.
The test system of data set [4] is Flu A Vietnam/1203/2004 (H5N1) × A/Ann Arbor/6/60 (H1N1 core genes). Nature of the data set: microbe, parasite or virus in culture. To be noted: Influenza A virus, MDCK, read-out: 50% effective concentration (EC50). In kind it is cell-based.
The next data set has as its system Brisbane/10/2007 (H3N2). Nature of the data set: microbe, parasite or virus in culture. Type of data set: cell-based. To be noted: Influenza A virus, read-out: 50% effective concentration (EC50).
Another data set can be described thus: in vivo. To be noted: mouse.
Data set [5] concerns Solomon Islands/03/2006 (H1N1). As to the kind of experiment: microbe, parasite or virus in culture. Type of data set: cell-based. To be noted: Influenza A virus, read-out: 50% effective concentration (EC50).
The subject of data set [6] is Flu A Duck/MN/1525/81 (H5N1). Nature of the data set: microbe, parasite or virus in culture. In kind it is cell-based. To be noted: Influenza A virus, H5N1, MDCK, read-out: 50% effective concentration (EC50).
Another data set deals with NWS/33 (H1N1). As to the kind of experiment: microbe, parasite or virus in culture. Type of data set: cell-based. To be noted: Influenza A virus, read-out: 50% effective concentration (EC50).
A further data set has as its system Brisbane/59/2007 (H1N1). As to the kind of experiment: microbe, parasite or virus in culture. Type of data set: cell-based. To be noted: Influenza A virus, read-out: 50% effective concentration (EC50).
The test system of a further data set is Sichuan/379/99. Nature of the data set: microbe, parasite or virus in culture. In kind it is cell-based. To be noted: unidentified influenza virus, read-out: 50% effective concentration (EC50).
The next data set deals with Victoria/3/75 (H3N2). As to the kind of experiment: microbe, parasite or virus in culture. Type of data set: cell-based. To be noted: Influenza A virus, read-out: 50% effective concentration (EC50).
Data set [7] has as its system California/04/2009 (H1N1). As to the kind of experiment: microbe, parasite or virus in culture. Type of data set: cell-based. To be noted: Influenza A virus, read-out: 50% effective concentration (EC50).
The next data set has as its system Flu B Florida/4/2006. As to the kind of experiment: microbe, parasite or virus in culture. To be noted: unidentified influenza virus, read-out: 50% effective concentration (EC50). In kind it is cell-based.
In another data set the test system is influenza virus. To be noted: versus oseltamivir carboxylate; cited from earlier work.
The conditions of data set [8]: for Plasma concentration of Zanamivir: iv dose 1 mg/kg.

As for `CCOC(=O)C1=C[C@@H](OC(CC)CC)[C@H](NC(C)=O)[C@@H](NC(=N)N)C1`, the oral bioavailability result in data set [1] (oral) is “approximately 2%”.

For the setting “mouse, in vivo, iv, 1 mg/kg”, `CCC(CC)OC1C=C(C(=O)OC(OC(=O)C(N)C(C)C)c2ccccc2)CC(NC(=N)N)C1NC(C)=O` (mixture of isomers) [GOC-Benzyl-Val] displayed an AUC of 867 ± 110 ng·h/mL, a CL of 31 mL/h, a T1/2 of 1.15 h and a Vz of 50.8 mL. For the same compound, under “mouse, in vivo, po, 10 mg/kg”, the AUC worked out at 1171 ± 357 ng·h/mL, the CL was 195 mL/h, the Cmax worked out at 192 ± 48 ng/mL and the T1/2 came out at 7.14 h. Moreover, for the setting “mouse, in vivo, po, 10 mg/kg”, the Tmax is 1.0 ± 0.0 h and the Vz turned out to be 2014 mL.

On to `CCC(CC)OC1C=C(C(=O)OC(C)OC(=O)C(N)C(C)C)CC(NC(=N)N)C1NC(C)=O` (mixture of isomers) [GOC-Me-Val], for which the T1/2 (mice, IV, 1 mg/kg) came out at 1.05 h. Under “mouse, in vivo, iv, 1 mg/kg”, this compound displayed an AUC of 730 ± 60 ng·h/mL, a CL of 39 mL/h and a Vz of 59.5 mL. Under “mouse, in vivo, po, 10 mg/kg”, this compound had an AUC of 3205 ± 577 ng·h/mL, a CL of 140 mL/h, a Cmax of 561 ± 235 ng/mL and a Vz of 276 mL. Moreover, in data set [2], the “Mean Weight Change Day 5” value is recorded as −0.2 grams; the “Mean Weight Change Day 5, % of initial body weight (in parenthesis)” value (from here on “Mean Weight Change Day 5, %”) was −0.5%; the “Mean Weight Change, day 7” value was −0.3 grams; the “Mean Weight Change, day 7, % of initial body weight (in parenthesis)” value (“Mean Weight Change, day 7, %” below) is recorded as −1.6%. In addition, the Survivors/Total in data set [2] was 5/5. Also, in data set [3] (0.1 mg/kg/day), the “MDD ± SD (mean day of death of mice that died prior to day 21)” value (“MDD ± SD” below) is reported as 10.0 ± 1.3 and the “protective from the lethal infection” value is “inactive”. Besides, in data set [3] (0.1 mg/kg/day per oral), the Survivors/Total is reported as 0/10. Further, in [3] (1 mg/kg/day), the “MDD ± SD” value was found to be 10.7 ± 0.6, the “protective from the lethal infection” value amounted to 70% and the “weight loss during the infection (FIG. 2)” value was “Severe weight loss”. Further, the Survivors/Total in [3] (1 mg/kg/day per oral) is listed as 7/10**. Moreover, the “protective from the lethal infection” value in data set [3] (10 mg/kg/day) is listed as 100%. For the same compound, the Survivors/Total in [3] (10 mg/kg/day per oral) is 10/10**.

In turn, `CCC(CC)O[C@@H]1C=C(C(=O)O)C[C@H](NC(=N)N)[C@H]1NC(C)=O` [GOC, 4-guanidinio oseltamivir carboxylate] came in with an AUC (mouse, in vivo, po, 10 mg/kg) of 327 ± 98 ng·h/mL; an AUC in the data set “in vivo” (iv, 1 mg/kg, mice, GOC in plasma) of 541 ± 229 ng·h/mL; an AUC in the data set “in vivo” (po, 10 mg/kg) of 232 ± 43 ng·h/mL. The compound further registered a Cmax (mouse, in vivo, po, 10 mg/kg) of 73 ± 30 ng/mL and a Cmax in “in vivo” (po, 10 mg/kg, Cmax) of 43 ± 29 ng/mL. For the same compound, the T1/2 (mouse, in vivo, po, 10 mg/kg) came out at 1.65 h. Moreover, the EC50 was 0.28 nM in data set [4]; greater than 320 nM in the data set with Brisbane/10/2007 (H3N2) (H3N2, MDCK cells, 3 to 4 days); 4.2 nM in data set [5] (H1N1, MDCK cells, 3 to 4 days); 1.2 nM in data set [6]; less than 32 nM with NWS/33 (H1N1) (H1N1, MDCK cells, 3 to 4 days); 4 nM with Brisbane/59/2007 (H1N1) (H1N1, MDCK cells, 3 to 4 days). In addition, the EC50 with Sichuan/379/99 (MDCK cells, 3 to 4 days) is greater than 3200 nM; in the data set with Victoria/3/75 (H3N2) (H3N2, MDCK cells, 3 to 4 days), 38 nM; in data set [7] (H1N1, MDCK cells, 3 to 4 days) it was 16 nM; in the data set on Flu B Florida/4/2006 (MDCK cells, 3 to 4 days), 460 nM. Moreover, the “Mean Weight Change Day 5” value in [2] is −0.3 grams. For the same compound, in data set [2], the “Mean Weight Change Day 5, %” value is recorded as −2.1%. The “Mean Weight Change, day 7” value in data set [2] is given as −0.2 grams. The “Mean Weight Change, day 7, %” value in [2] is −1.0%. The oral bioavailability in data set [1] (oral) is on record as roughly 4.0%. Besides, the bioavailability in the data set “in vivo” (10 mg/kg, BA (bioavailability of GOC)) worked out at 4.3%. In addition, the Vd in “in vivo” (iv, 1 mg/kg) came to 0.0678 L. This compound had a clearance in the data set “in vivo” (iv, 1 mg/kg) of 0.883 mL/min. Also, the half-life was 0.88 h in the data set “in vivo” (iv, 1 mg/kg, T1/2, mice) and 1.21 h in the data set “in vivo” (po, 10 mg/kg, T1/2). Moreover, the time of peak concentration (Tmax) in “in vivo” (po, 10 mg/kg) was determined as 3 ± 1.2 h; in the data set “in vivo” (po, 10 mg/kg, mice, PO (fasted), GOC in plasma), 1.3 ± 1 h. Further, the “MDD ± SD” value in data set [3] (0.1 mg/kg/day) is on record as 9.0 ± 1.0; in data set [3] (1 mg/kg/day), 9.8 ± 1.2. Moreover, the “protective from the lethal infection” value in [3] (0.1 mg/kg/day) is given as “not active”; in data set [3] (1 mg/kg/day) it was “not active”; in data set [3] (10 mg/kg/day), 100%. For the same compound, the Survivors/Total in data set [3] (0.1 mg/kg/day per oral) was 0/10; in data set [3] (1 mg/kg/day per oral), 1/10; in data set [3] (10 mg/kg/day per oral), 10/10**. Moreover, in data set [3] (10 mg/kg/day), the “weight loss during the infection (FIG. 2)” value was “Some weight loss”. For the same compound, in the data set on influenza virus, the “times more potent in tissue culture of influenza virus replication” value was 10 times.

Consider `CCC(CC)O[C@@H]1C=C(C(=O)O)C[C@H](N)[C@H]1NC(C)=O` [Oseltamivir Carboxylate, Oseltamivir carboxylate], for which the EC50 in data set [4] is 2.8 nM; in the data set with Brisbane/10/2007 (H3N2) (H3N2, MDCK), greater than 320 nM; in data set [5] (H1N1, MDCK), greater than 320 nM; in data set [6] it was 150 nM; with NWS/33 (H1N1) (H1N1, MDCK) it was 580 nM; with Brisbane/59/2007 (H1N1) (H1N1, MDCK), greater than 320 nM. For the same compound, the EC50 in the data set on Sichuan/379/99 (MDCK) is greater than 3200 nM; in the data set on Victoria/3/75 (H3N2) (H3N2, MDCK), greater than 320 nM; in [7] (H1N1, MDCK), 300 nM; in the data set on Flu B Florida/4/2006 (MDCK), greater than 3200 nM. Besides, the oral bioavailability in data set [1] (oral) is roughly 4.0%.

For `CCOC(=O)C1=C[C@@H](OC(CC)CC)[C@H](NC(C)=O)[C@@H](N)C1` [Oseltamivir], the Survivors/Total is 5/5 in data set [2] (BALB/c), 0/10 in data set [3] (0.1 mg/kg/day per oral), 10/10** in [3] (1 mg/kg/day per oral) and 10/10** in data set [3] (10 mg/kg/day per oral). Further, the “Mean Weight Change Day 5” value in [2] is listed as −0.3 grams. The “Mean Weight Change Day 5, %” value in data set [2] is reported as −1.6%. Also, in data set [2], the “Mean Weight Change, day 7” value is given as −0.1 grams. For the same compound, the “Mean Weight Change, day 7, %” value in [2] is given as −0.5%. Moreover, in [3] (0.1 mg/kg/day), the “MDD ± SD” value is on record as 9.7 ± 1.6. For the same compound, the “protective from the lethal infection” value in data set [3] (0.1 mg/kg/day) is “ineffective”; in [3] (1 mg/kg/day), 100%; in [3] (10 mg/kg/day), 100%. The “weight loss during the infection (FIG. 2)” value in data set [3] (1 mg/kg/day) is recorded as “lost minimal weight”.

Take `CC(=O)N[C@H]1[C@H]([C@H](O)[C@H](O)CO)OC(C(=O)OC(OC(=O)[C@H](N)C(C)C)C(C)C)=C[C@@H]1NC(=N)N` (stereo partly drawn) [ZAN-Isp-Val]: in data set [8] (Oral, fasted mice, Zanamivir in plasma), the AUC is given as 2177 (ng/ml) × hr. In addition, the “absorption after oral dosing” value in data set [8] (fasted animals) is recorded as “completely absorbed”.

Consider `CC(=O)N[C@H]1[C@H]([C@H](O)[C@H](O)CO)OC(C(=O)O)=C[C@@H]1N=C(N)N` [Zanamivir], for which, in data set [1] (in vivo, po), the oral bioavailability entry is “about 2%”. Further, the “Plasma concentration of Zanamivir” value in data set [8] (0.03 hours) is 4018.3 ng/mL; in data set [8] (0.08 hours), 2487.5 ng/mL; in data set [8] (0.25 hours), 633.8 ng/mL; in [8] (0.50 hours), 212.0 ng/mL; in [8] (1.00 hours), 78.6 ng/mL; in [8] (2.00 hours) it was 14.0 ng/mL. In [8] (mouse, in vivo, iv, 1 mg/kg), the AUC is listed as 202.4 (ng/ml) × hr.

(Values after patent publication US20130023585A1, “Neuraminidase Inhibitors” (TSRL, INC., priority 2010, published 2013).)
